# Patent US20230123334A1, “AMINO LIPID COMPOUND, PREPARATION METHOD THEREFOR, AND APPLICATION THEREOF” (SHENZHEN SHENXIN BIOTECHNOLOGY CO., LTD., priority 2020, published 2023)
# Test system: HEK293 cells
# Assay: Preliminary screening as mRNA vectors, EGFP mRNA transfection of HEK293 cells
# Format: cell-based
# Settings: EGFP mRNA 50 ng per well, 96-well plates; percentage of GFP fluorescent cells relative to total number of cells (Hoechst)
# How it was run: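 HEK293 cells in DMEM plus 10% FBS transfected in 96-well format with 50 ng EGFP mRNA per well; Lipofectamine2000 served as positive control. Read-out is the percentage of GFP-fluorescent cells among total cells, counted by Hoechst nuclear stain.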
row,SMILES,Absolute mRNA transfection efficiency in HEK293 cells [%]
1,CCCCCCCCCCSc1nc(NCCN2CCOCC2)nc(SCCCCCCCC)n1 [Compound D2S8S10],38.8
2,CCCCCCCCCCCCNc1nc(NCCN2CCOCC2)nc(SCCCCCCCCCCC)n1 [Compound D2S11N12],3.1
3,CCCCCCCCCCCCCCCCCCSc1nc(NCCCN(C)C)nc(SCCCCCC)n1 [Compound D6S6S18],83.3
4,CCCCCCCCCCCCCCCCNc1nc(NCCCN(C)C)nc(SCCCCCC)n1 [Compound D6S6N16],40.4
5,CCCCCCCCCCCCCCCCCCNc1nc(NCCN2CCCC2)nc(SCCCCCCC)n1 [Compound D3S7N18],39.8
6,CCCCCCCCCCCNc1nc(NCCCN2CCOCC2)nc(SCCCCCC)n1 [Compound D8S6N11],1.1
7,CCCCCCCCCCCCCCCCCCSc1nc(NCCCCCCCC)nc(NCCCN(C)C)n1 [Compound D6S18N8],74.5
8,CCCCCCCCCCCCN(CCCCCCCCCCCC)c1nc(NCCN(CC)CC)nc(SCCCCCCC)n1 [D7S7^2N12],1.2
9,CCCCCCCCCCCCCCSc1nc(NCCCCCCCCCCCCC)nc(NCC2CCN(C)CC2)n1 [Compound D10S14N13],11.7
10,CCCCCCCCCCCCCCCCNc1nc(NCCN2CCN(C)CC2)nc(SCCCCCCCCCCCCCCC)n1 [Compound D5S15N16],1.4
11,CCCCCCCCCCCCCCCCCCSc1nc(NCCCCCCCCCCC)nc(NCCN(CC)CC)n1 [Compound D7S18N11],10.7
12,CCCCCCCCCCCCN(CCCCCCCCCCCC)c1nc(NCCCN(C)C)nc(SCCCCCCCCCCC)n1 [D6S11^2N12],3.2
13,CCCCCCCCCCCCCNc1nc(NCCN2CCN(C)CC2)nc(SCCCCCCC)n1 [Compound D5S7N13],39.5
14,CCCCCCCCCSc1nc(NCCCCCC)nc(NCCN2CCCC2)n1 [Compound D3S9N6],0.2
15,CCCCCCCCCCCCCCCCNc1nc(NCCN2CCCCC2)nc(SCCCCCCCCCCC)n1 [Compound D4S11N16],12.3
16,CCCCCCCCCCCCCCCNc1nc(NCCN(C)C)nc(SCCCCCCCC)n1 [Compound D1S8N15],23.8
17,CCCCCCCCCCCCCCCCNc1nc(NCCN2CCCCC2)nc(SCCCCCC)n1 [Compound D4S6N16],0.5
18,CCCCCCCCCCCCCCSc1nc(NCCCCCCCCCCC)nc(NCC2CCN(C)CC2)n1 [Compound D10S14N11],21.4
19,CCCCCCCCCSc1nc(NCCCCCCCC)nc(NCCCN(C)C)n1 [Compound D6S9N8],7.5
20,CCCCCCCCCCCCCCCCNc1nc(NCCCN2CCOCC2)nc(SCCCCCCCCCCCCCCC)n1 [Compound D8S15N16],0.4
21,CCCCCCCCCCCCCCCNc1nc(NCCCN2CCOCC2)nc(SCCCCCCCCCCCC)n1 [Compound D8S12N15],0.0
22,CCCCCCCCCCCCCCCSc1nc(NCCCN2CCN(C)CC2)nc(SCCCCCC)n1 [Compound D9S6S15],6.5

row,SMILES,Absolute mRNA transfection efficiency in HEK293 cells [%]
1,CCCCCCCCCCCCCCCNc1nc(NCC2CCN(C)CC2)nc(SCCCCCC)n1 [Compound D10S6N15],7.9
2,CCCCCCCCCCCCCNc1nc(NCCCN2CCN(C)CC2)nc(SCCCCCC)n1 [Compound D9S6N13],6.6
3,CCCCCCCCCSc1nc(NCCCCCCCC)nc(NCCN(C)C)n1 [Compound D1S9N8],2.9
4,CCCCCCCCCCCCCCCCNc1nc(NCCCN2CCOCC2)nc(SCCCCCCCCCC)n1 [Compound D8S10N16],0.2
5,CCCCCCCCCSc1nc(NCCCN2CCN(C)CC2)nc(SCCCCCCCC)n1 [Compound D9S8S9],85.2
6,CCCCCCCCCCCCCCSc1nc(NCCCCCCCC)nc(NCCN(CC)CC)n1 [Compound D7S14N8],10.8
7,CCCCCCCCCCCCCCCSc1nc(NCCCCCCCCCCC)nc(NCCN(CC)CC)n1 [Compound D7S15N11],5.0
8,CCCCCCCCCCCCNc1nc(NCCN(CC)CC)nc(SCCCCCC)n1 [Compound D7S6N12],1.4
9,CCCCCCCCCCCSc1nc(NCCCCCCCC)nc(NCCN(C)C)n1 [Compound D1S11N8],13.1
10,CCCCCCCCCCCCCCCCCCSc1nc(NCCCCCCCCCCC)nc(NCCCN(C)C)n1 [Compound D6S18N11],5.7
11,CCCCCCCCCCCCCCCCCCNc1nc(NCC2CCN(C)CC2)nc(SCCCCCCCCCCCCCCC)n1 [Compound D10S15N18],4.2
12,CCCCCCCCCCCCCCCCCCSc1nc(NCCCCCCCCCCCCCCCC)nc(NCCN2CCN(C)CC2)n1 [Compound D5S18N16],0.1
13,CCCCCCCCCCCCCCCCCCNc1nc(NCC2CCN(C)CC2)nc(SCCCCCCCCCCCCCC)n1 [Compound D10S14N18],2.6
14,CCCCCCCCCCCCCCCSc1nc(NCCCCCCCCCCCC)nc(NCCCN2CCN(C)CC2)n1 [Compound D9S15N12],4.4
15,CCCCCCCCCCSc1nc(NCCCCCCCC)nc(NCC2CCN(C)CC2)n1 [Compound D10S10N8],1.7
16,CCCCCCCCCCCCCCCNc1nc(NCCN2CCOCC2)nc(SCCCCCCCCC)n1 [Compound D2S9N15],5.9
17,CCCCCCCCCSc1nc(NCCCCCCC)nc(NCCN(C)C)n1 [Compound D1S9N7],0.3
18,CCCCCCCCCCCCCCCCSc1nc(NCCCCCCCC)nc(NCCCN2CCOCC2)n1 [Compound D8S16N8],17.8
19,CCCCCCCCCCCCCCCCSc1nc(NCCN2CCCCC2)nc(SCCCCCCC)n1 [Compound D4S7S16],8.8
20,CCCCCCCCCCCCCCCCSc1nc(NCCCCCCCCCCCC)nc(NCCCN2CCN(C)CC2)n1 [Compound D9S16N12],12.4
21,CCCCCCCCCCCCCCCCCCNc1nc(NCCCN2CCN(C)CC2)nc(SCCCCCCCCC)n1 [Compound D9S9N18],14.5
22,CCCCCCCCCCCCCCSc1nc(NCCCCCCCCCCC)nc(NCCN2CCCC2)n1 [Compound D3S14N11],30.9

row,SMILES,Absolute mRNA transfection efficiency in HEK293 cells [%]
1,CCCCCCCCCCCCCNc1nc(NCCCN2CCOCC2)nc(SCCCCCCCCCCC)n1 [Compound D8S11N13],3.1
2,CCCCCCCCCCCCCCCCSc1nc(NCCN2CCCCC2)nc(N(CCCCCCCCCCCC)CCCCCCCCCCCC)n1 [D4S16^2N12],0.3
3,CCCCCCCCCCCCCCSc1nc(NCCN2CCN(C)CC2)nc(N(CCCCCCCCCCCC)CCCCCCCCCCCC)n1 [D5S14^2N12],0.9
4,CCCCCCCCCCCCCNc1nc(NCCN(C)C)nc(SCCCCCCC)n1 [Compound D1S7N13],12.8
5,CCCCCCCCCCCCCCSc1nc(NCCN2CCOCC2)nc(N(CCCCCCCCCCCC)CCCCCCCCCCCC)n1 [D2S14^2N12],0.0
6,CCCCCCCCCCCCCCCCCCSc1nc(NCCCCCCCC)nc(NCCN(CC)CC)n1 [Compound D7S18N8],9.8
7,CCCCCCCCCCCCCCSc1nc(NCCCCCCCCC)nc(NCCN2CCOCC2)n1 [Compound D2S14N9],7.4
8,CCCCCCCCCCCCN(CCCCCCCCCCCC)c1nc(NCCN(C)C)nc(SCCCCCCCC)n1 [D1S8^2N12],0.4
9,CCCCCCCCCCSc1nc(NCCCCCCCCC)nc(NCCCN2CCN(C)CC2)n1 [Compound D9S10N9],10.5
10,CCCCCCCCCCCCCCCCSc1nc(NCCCCCCCCCCCCC)nc(NCCN(CC)CC)n1 [Compound D7S16N13],2.9
11,CCCCCCCCCCCCCCCCNc1nc(NCCN2CCOCC2)nc(SCCCCCCCCCCCC)n1 [Compound D2S12N16],0.8
12,CCCCCCCCCCCCN(CCCCCCCCCCCC)c1nc(NCCCN2CCOCC2)nc(SCCCCCCCCCC)n1 [D8S10^2N12],0.0
13,CCCCCCCCCCCCSc1nc(NCCCCCCCCC)nc(NCCN2CCN(C)CC2)n1 [Compound D5S12N9],26.5
14,CCCCCCCCCCCCCCCCCCSc1nc(NCCCCCCCCCCCC)nc(NCCN2CCOCC2)n1 [Compound D2S18N12],2.3
15,CCCCCCCCCCCCNc1nc(NCCN2CCCC2)nc(SCCCCCC)n1 [Compound D3S6N12],4.1
16,CCCCCCCCCSc1nc(NCCCCCC)nc(NCCCN2CCN(C)CC2)n1 [Compound D9S9N6],1.8
17,CCCCCCCCCCCCCCCSc1nc(NCCCCCCCCCCCC)nc(NCCN(C)C)n1 [Compound D1S15N12],4.8
18,CCCCCCCCCCCCCCCCNc1nc(NCCN(CC)CC)nc(SCCCCCCCCCC)n1 [Compound D7S10N16],19.3
19,CCCCCCCCCCCNc1nc(NCCN2CCOCC2)nc(SCCCCCC)n1 [Compound D2S6N11],0.8
20,CCCCCCCCCNc1nc(NCCCN2CCOCC2)nc(SCCCCCC)n1 [Compound D8S6N9],1.2
21,CCCCCCCCNc1nc(NCCCN2CCOCC2)nc(SCCCCCC)n1 [Compound D8S6N8],0.2
22,CCCCCCCCCCCCCCSc1nc(NCCCCCCCCCCCC)nc(NCC2CCN(C)CC2)n1 [Compound D10S14N12],6.9
